Test results taken from paper PMC3983201, “6-Methoxyflavanones as Bitter Taste Receptor Blockers for hTAS2R39” (PLoS ONE, 2014).

Biological target: T1, hTAS2R16 (Homo sapiens, UniProt Q9NYV7)
T1 construct: expressed in transfected cells; host or cells: induced versus non-induced cells
T1 sequence (Q9NYV7 1-291): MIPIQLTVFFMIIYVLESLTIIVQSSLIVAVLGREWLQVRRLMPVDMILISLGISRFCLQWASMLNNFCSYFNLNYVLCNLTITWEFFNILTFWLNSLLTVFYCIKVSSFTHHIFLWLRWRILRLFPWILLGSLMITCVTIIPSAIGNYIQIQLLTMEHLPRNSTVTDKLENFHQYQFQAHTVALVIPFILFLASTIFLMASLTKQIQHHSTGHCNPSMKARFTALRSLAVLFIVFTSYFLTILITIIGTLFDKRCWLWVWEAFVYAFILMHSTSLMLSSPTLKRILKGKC
Test: Calcium assay of hTAS2R16 activation/inhibition (salicin as agonist)
Type: cell-based
Details: for inhibition of salicin response on hTAS2R16: 10 mM salicin, simultaneous and stepwise addition
Experimental: Cells were seeded into poly-L-lysine-coated (Sigma-Aldrich) 96-well plates (black wall, clear bottom, Greiner bio-one, Frickenhausen, Germany) at a density of 7*10^3 cells in 100 μL/well and cultured for 24 h. Transcription of the receptors was induced by adding 0.25 μg/mL doxycycline (Sigma-Aldrich). Cells were induced for 24 h and then loaded with the calcium-sensitive fluorescent dye Fluo-4-AM (2.5 μM, Invitrogen), which was dissolved in Tyrode's buffer containing 5% (v/v) tetracycline-free FBS (Lonza). One hour after loading, cells were washed with Tyrode's buffer and taken up in Tyrode's buffer. Stock solutions of test compounds were prepared in DMSO and diluted to the appropriate concentration in Tyrode's buffer, not exceeding a DMSO concentration of 1% (v/v).
Receptor activation or inhibition was measured via intracellular Ca^2+ release in a FlexStation II 384 or FlexStation III (Molecular Devices Corporation, Sunnyvale, CA, USA) by measuring fluorescence (excitation 485 nm/emission 520 nm) for either 90 s or 240 s at 37°C. Two methods of compound administration were applied: simultaneous and stepwise addition of potential antagonist and agonist. The first 17 s before compound addition were used for baseline determination. For the simultaneous method, agonist and potential antagonist were pre-mixed, administered after 17 s, and fluorescence was measured for in total 90 s. For the stepwise method, after 17 s, the potential antagonist was added, fluorescence was measured until 120 s, and after 120 s the agonist was added and measured for another 120 s, in total 240 s. […] Each experiment was performed at least in duplicate in separate experiments (as indicated for each figure).
Screening for hTAS2R39 inhibition by flavanones was performed with simultaneous application of agonist (200 μM ECG) and putative antagonist (250 μM flavanone). Inhibition was indicated when [drawing 1] . In case of indicated inhibition, flavanones were applied at different concentrations, in order to test for dose-dependent inhibition, at the EC80 concentration of the agonist. Another agonist of hTAS2R39, denatonium benzoate, was used in inhibition experiments at 1.7 mM (EC80). hTAS2R14 inhibition was tested with 640 μM ECG or 70 μM genistein as agonists, representing their respective EC80 concentrations. To investigate the specificity of flavanones for inhibition of hTAS2R39 and hTAS2R14, another bitter taste receptor, hTAS2R16 (not known to be activated by flavonoids), was used in inhibition experiments ( File S3 ) towards its agonist salicin.
SUPPORTING INFORMATION to the article “6-Methoxyflavanones as Bitter Taste Receptor Blockers for hTAS2R39” by Roland, WSU; Gouka, RJ; Gruppen, H; Driesse, M; van Buren, L; Smit, G; Vincken, J-P File S3 Investigation of identified inhibitors on hTAS2R16.
To investigate whether the hTAS2R39 inhibitors 6,3’-dimethoxyflavanone (3), 4’- fluoro-6-methoxyflavanone (6), and 6-methoxyflavanone (11) were able to inhibit a bitter receptor not known for flavonoid activation, hTAS2R16 was selected for inhibition experiments. Measuring dose-response curves of the hTAS2R16 agonist […]
Figure S3. Inhibition of response of 10 mM salicin (---) on hTAS2R16 (induced (●), non-induced (○)) by 4’-fluoro-6-methoxyflavanone (6) after simultaneous addition (A) and stepwise addition (B), by 6,3’-dimethoxyflavanone (3) after simultaneous addition (C) and stepwise addition (D), and by 6-methoxyflavanone (11) after simultaneous addition (E) and stepwise addition (F). […]

Row | inhibition of salicin response on hTAS2R16 | inhibitory effect of probenecid on hTAS2R16 assay (0.5 mM probenecid in Tyrode's buffer and dye loading buffer, agonist salicin) | Compound
1 | no inhibition |  | COc1ccc2c(c1)C(=O)CC(c1ccc(F)cc1)O2 (stereo not drawn) [Compound 6, 4′-Fluoro-6-methoxyflavanone]
2 | no inhibition |  | COc1ccc2c(c1)C(=O)CC(c1ccccc1)O2 (stereo not drawn) [Compound 11, 6-Methoxyflavanone]
3 |  | no inhibitory effect | CCCN(CCC)S(=O)(=O)c1ccc(C(=O)O)cc1 [probenecid, p-(dipropylsulfamyl)benzoic acid, reference compound]
